Each block holds one molecule with its values, some of them ahead of it. Non-standard residues stand in square brackets, D forms with d. Residues, ends and D or L forms follow the SMILES beside them. 4Abz = Nc1ccc(C(=O)O)cc1
What was measured:
Assay type in all cases: biochemical
carboxypeptidase A [1] = test: Spectrophotometric CP-A activity determination (hippuricase, benzoate hydroxylase, decrease of NADPH/NADH absorbance at 340 nm)
Method: […] of serum (the same as used in Example 6) was added to 0.5 ml of a test reagent solution (pH 8.0) containing 10 mM p-hydroxybenzoylglycyl-L-tyrosine, 3000 U/1 hippuricase, 0.2 mM NADPH, 10000 U/1 p-hydroxybenzoate hydroxylase and 100 mM boric acid.
The decrease in the absorbance by the solution was measured at 340 nm of light at a temperature of 37°C during the course of the reaction. There was used for the measurement a reaction rate analyser in which the reaction time was five minutes. The activity value (mU/ml) of CP-A was automatically printed out in the analyser.
The calculation of activity was performed according to the following formula: [formula] wherein ε = 6.22 x 10^3 (Molecular extinction coefficient of NADPH)
The activity of CP-A was determined by repeating the procedure shown in Example 8 except that o-hydroxybenzoyl-L-isoleucyl-L-phenylalanine was used instead of p-hydroxybenzoylglycyl-L-tyrosine, salicylate hydroxylase was used instead of p-hydroxybenzoate hydroxylase, and nicotinamide adenine dinucleotide in reduced form (NADH) was used instead of NADPH.
The activity of CP-A was determined by repeating the procedure shown in Example 8 with a mixture prepared by adding 0.05 ml of serum (the same as used in Example 6) to 0.5 ml of a test reagent solution (pH 8.0) containing 30 mM p-methoxybenzoyl-L-leucyl-L-phenylalanine, 1000 U/1 hippuricase, 0.2 mM NADH, 20000 U/1 p-methoxybenzoate hydroxylase and 100 mM phosphoric acid.

carboxypeptidase A [2] = test: Colourimetric CP-A activity determination (hippuricase, NaNO2 diazotisation, azo dye at 505 nm); details: same serum as Example 6; 20 mM substrate, pH 8.0, 37°C, 20 minutes; repeated 20 times, CV 5.3%
Method: 0.05 ml of serum (the same as used in Example 6) containing CP-A was added to 0.5 ml of a test reagent solution (pH 8.0) containing 20 mM p-aminobenzoyl-L-alanyl-L-tyrosine, 0.5 M NaCl, 3000 U/1 hippuricase and 100 mM boric acid. After this mixture had been allowed to stand at 37°C for 20 minutes, 0.5 ml of a solution containing 2 mM NaN02 and 1 mM NaOH was added to the mixture, and the mixture was allowed to stand at room temperature for 10 minutes. 0.5 ml of a reagent solution containing 1 mM potassium l-naphthol-2-sulphate, 50 mM boric acid and 200 mM NaOH was added to the mixture. The absorbance by the solution was measured at 505 nm of light. This absorbance is referred to as Absorbance A.
Absorbance B was measured by repeating the procedure as shown above but using 0.05 ml of an aqueous solution containing 10 uM p-aminobenzoic acid instead of 0.05 ml of serum, and Absorbance C was measured by repeating the procedure as shown above but using 0.05 ml of distilled water instead of 0.05 ml of serum.
The activity value (mU/ml) of CP-A can be calculated by the following equation: [formula]

carboxypeptidase A [3] = test: Colourimetric CP-A activity determination (hippuricase, 4-aminoantipyrine, periodate, quinonimine dye at 505 nm); details: serum containing carboxypeptidase A; 10 mM substrate, pH 7.8, 37°C, 20 minutes; test repeated 20 times, CV 3.4%
Method: 0.1 ml of serum containing carboxypeptidase A was added to 0.5 ml of a test reagent solution of pH 7.8 containing 10 mM p-hydroxybenzoyl-L-alanyl-L-phenylalanine, 0.1 M sodium chloride, 3000 U/1 hippuricase, 2.5 mM 4-aminoantipyrine and 100 mM N-2-hydroxyethyl piperazine-N-2-ethane sulphonic acid. The mixture was incubated at 37°C for 20 minutes. 1.5 ml of a reaction termination solution containing 6.5 mM sodium periodate was added to this reaction mixture. The mixture obtained was incubated at 37°C for five minutes, so that quinonimine dye was formed. The absorbance of the reaction mixture was measured at a light wavelength of 505 nm. This absorbance is referred to as Absorbance A.
Separately, for a blank (comparison) test, in the procedure as mentioned above, 1.5 ml of a reaction termination solution containing 6.5 mM sodium […] was added to the test reagent solution before 0.1 ml of serum containing carboxypeptidase A was added to the test reagent solution. The absorbance of the blank test reagent was then measured in the same manner as described above, at a light wavelength of 505 nm. This absorbance is referred to as Absorbance B.
The activity value (mU/ml) of carboxypeptidase A can be calculated by the following equation: [formula] where ε = 12000 (Molecular extinction coefficient or guinon- imine dye)

SMILES: CC[C@H](C)[C@H](NC(=O)c1ccccc1O)C(=O)N[C@@H](Cc1ccccc1)C(=O)O [o-hydroxybenzoyl-L-isoleucyl-L-phenylalanine]
Activity value (carboxypeptidase A [1]; procedure of Example 8 with salicylate hydroxylase and NADH, CV 7.0%): 1.1 mU/ml

SMILES: C[C@H](NC(=O)c1ccc(O)cc1)C(=O)N[C@@H](Cc1ccccc1)C(=O)O [p-hydroxybenzoyl-L-alanyl-L-phenylalanine]
Activity value (carboxypeptidase A [3]): 5.1 mU/ml

SMILES: O=C(CNC(=O)c1ccc(O)cc1)N[C@@H](Cc1ccc(O)cc1)C(=O)O [p-hydroxybenzoylglycyl-L-tyrosine]
Activity value (carboxypeptidase A [1]; same serum as Example 6, 10 mM substrate, pH 8.0, 37°C, 0.2 mM NADPH, p-hydroxybenzoate hydroxylase, repeated 20 times, CV 5.2%): 6.2 mU/ml

Now from value to molecule:

Activity value (carboxypeptidase A [2]): 1.7 mU/ml
SMILES: C[C@H](NC(=O)c1ccc(N)cc1)C(=O)N[C@@H](Cc1ccc(O)cc1)C(=O)O [p-aminobenzoyl-L-alanyl-L-tyrosine] (H-[4Abz]-Ala-Tyr-OH)

Activity value (carboxypeptidase A [1]; same serum as Example 6, 30 mM substrate, pH 8.0, 0.2 mM NADH, p-methoxybenzoate hydroxylase, 100 mM phosphoric acid, CV 4.7%): 2.5 mU/ml
SMILES: COc1ccc(C(=O)N[C@@H](CC(C)C)C(=O)N[C@@H](Cc2ccccc2)C(=O)O)cc1 [p-methoxybenzoyl-L-leucyl-L-phenylalanine]
